In the supplement of paper PMC10949913:

Experiments:
Assay in all cases: area under concentration-response curve (viability) (AUC (a.u.)); higher = less active
Conditions in all cases: 48 h
CU-ACC1 = system: CU-ACC1
Procedure, shortened: (§1)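 Library compounds were tested at 11 concentrations against three adrenocortical carcinoma cell lines in 1,536-well plates. CellTiter-Glo luminescence was read after 48 h and normalised per plate to vehicle and empty-well controls. Only inhibitory or non-responding curve classes from fitted concentration-response curves contributed AC50 and area under the curve.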

CU-ACC2 = system: CU-ACC2
Procedure, shortened: as §1

NCI-H295R = system: NCI-H295R
Procedure, shortened: as §1

Structure (SMILES)	area under concentration-response curve (CU-ACC1)	area under concentration-response curve (CU-ACC2)	area under concentration-response curve (NCI-H295R)
O=C/1\C=C(/OC(=C1)/C2=C3SC4=C(SC3=CC=C2)C=CC=C4)N5CCOCC5	550	650	–
Cc1cccc(N(C)C(=S)Oc2ccc3ccccc3c2)c1	428	497	–
CC1(N)CCN(c2cccnc2NC(=O)c2nc(-c3ncccc3C(F)(F)F)cnc2N)CC1	430	509	–
OC[C@H]1O[C@@H](O[C@@H]2O\C=C(/[C@H]3C\C=C(CO)/[C@@H]23)C(O)=O)[C@H](O)[C@@H](O)[C@@H]1O	538	594	–
CN1CCC(=C2c3ccccc3CC(=O)c3sccc32)CC1	557	537	–
Cc1ccccc1C(=O)c1ccc(Nc2ccc(Br)cc2N)cc1Cl	–	502	–
CCN(CC)C(=O)Cc1csc(N[S+](=O)([O-])c2cccc(Cl)c2C)n1	415	445	–
c1ccc(-c2nn3c(c2-c2ccnc4cc(OCCN5CCOCC5)ccc24)CCC3)nc1	479	496	–
CNC(=O)C1=CC=C(C)C(=C1)N2C(=C/C(=C(/Br)C2=O)OCC3=C(F)C=C(F)C=C3)\C	–	547	–
O=C1Nc2ccccc2/C1=C1\Nc2ccccc2C1=O	557	589	–
O=C(Nc1nnc(-c2ccco2)o1)c1cc(-c2ccccc2)nc2ccccc12	–	576	–
COc1cc([C@@H]2c3cc4c(cc3[C@@H](O[C@@H]3O[C@@H]5CO[C@@H](C)O[C@H]5[C@H](O)[C@H]3O)[C@H]3COC(=O)[C@H]23)OCO4)cc(OC)c1O	492	592	–
c1ccc2c(Cc3c[nH]c4ccccc34)c[nH]c2c1	505	574	–
Nc1c2c(nc3ccccc13)CCCC2	583	653	–
CC(C)=CC[C@@H](O)C/1=C/C(=O)C2=C(O)C=CC(=C2C1=O)O	568	603	–
NC(=O)c1ccc(-c2nc(-c3ccc4c(c3)OCCO4)c(-c3ccccn3)[nH]2)cc1	–	366	–
CN1CCN(CC1)C2=CC=C(NC3=NC=C4\C=C(\C#N)C(=O)N(C5CCCC5)C4=N3)C=C2	548	588	–
CCC(=O)OCC(=O)C1(OC(=O)CC)C(C)CC2C3CC\C4=C\C(=O)\C=C/C4(C)C3(F)C(O)CC12C (stereo not given)	528	613	–
CCCCCCCCCCCCCCCCOCCCO[P](O)(=O)COC(CO)CN1/C=C\C(=N/C1=O)N (stereo not given)	551	609	–
C\C1=C\C(=O)OC2=C1C=CC(=C2)O	473	552	–
CN[C@H]1CN(C[C@@H]1OC)C2=NC3=C(C=C2)C(=O)C(=C\N3C4=NC=CS4)/C(O)=O	530	632	–
CCN(c1ccccc1)c1cc(NC)[n+](C)c(C)n1	574	600	–

Structure (SMILES)	area under concentration-response curve (CU-ACC1)	area under concentration-response curve (CU-ACC2)	area under concentration-response curve (NCI-H295R)
Nc1nc(F)nc2c1ncn2C1OC(COP(=O)(O)O)C(O)C1O (stereo not given)	–	619	–
CN(C)C(=N)NC(=N)N	550	572	–
CN(Cc1cc(Br)cc(Br)c1N)C1CCCCC1	383	526	–
COC1=CC=CC(=C1N)\C2=C\C(=O)C3=C(O2)C=CC=C3	–	591	–
NC1=NC(=O)N2CC12 (stereo not given)	–	592	–
N#Cc1cc(NC(=O)Nc2nnc(-c3ccncc3)s2)ccc1-c1cn[nH]c1	–	529	–
O=[S+]([O-])(c1cccc2c(I)cccc12)N1CCCNCC1	–	649	–
O=C(O)c1ccc(-n2nc(-c3ccccc3O)nc2-c2ccccc2O)cc1	–	590	–
COc1ccc(-n2nc(C(N)=O)c3c2C(=O)N(c2ccc(N4CCCCC4=O)cc2)CC3)cc1	–	374	–
CC[C@@H](C)[C@H](NC(=O)[C@H](CC1CCCCC1)NC(=O)c1ccno1)C(=O)N1CCC2(CCc3ccccc32)CC1	–	118	–
CN1CCCN=C1/C=C/c1cccs1	–	211	–
C=C1C(=O)OC2/C=C(/C)CC/C=C(/C)CCC12 (stereo not given)	–	598	–
C=CC(=O)Nc1ccc(F)c(-c2ncnc3[nH]cc(C(=O)OCC)c23)c1	–	489	–
CO[C@H]1C[C@@H]2CC[C@@H](C)[C@@](O)(O2)C(=O)C(=O)N2CCCC[C@H]2C(=O)O[C@H]([C@H](C)C[C@@H]2CC[C@@H](OP(C)(C)=O)[C@H](OC)C2)CC(=O)[C@H](C)/C=C(\C)[C@@H](O)[C@@H](OC)C(=O)[C@H](C)C[C@H](C)/C=C/C=C/C=C/1C	–	536	–
CC(C)(N)C(=O)N[C@H](COCc1ccccc1)C(=O)N1CCC2(CC1)CN([S+](C)(=O)[O-])c1ccccc12	–	489	–
O=[S+]([O-])(NCCNC/C=C/c1ccc(Br)cc1)c1cccc2cnccc12	–	595	–
CC#C[C@]1(O)CC[C@H]2[C@@H]/3CCC/4=C/C(=O)CCC4=C3[C@H](C[C@]12C)C5=CC=C(C=C5)N(C)C	–	546	–
CC\1=C/C=C\C=[N]1[Pt](N)(Cl)Cl	–	450	–
OC1=CC=C2\C3=C(CNCC3)/C(=O)OC2=C1C4OCCCO4	–	623	–
COC1=CC=C(C=C1)C2CC(=N/N2C3=CC=C(C=C3)[S+](N)([O-])=O)\C4=CC=CC=C4 (stereo not given)	–	648	–
CC1=CC(=CC(=C1C\C2=N\CCN2)C)C(C)(C)C	–	595	–
c1cc(OCCN2CCCCC2)cc(-c2n[nH]c3ccc(-c4nc[nH]n4)cc23)c1	525	–	563

Structure (SMILES)	area under concentration-response curve (CU-ACC1)	area under concentration-response curve (CU-ACC2)	area under concentration-response curve (NCI-H295R)
Cc1ccccc1C(=O)Nc1ccc(C(=O)N2CCCC(O)c3cc(Cl)ccc32)c(C)c1 (stereo not given)	484	–	536
COCCCOc1ccnc(CS(=O)c2nc3ccccc3[n-]2)c1C.[Na+] (stereo not given)	–	564	–
Cn1cc(-c2cnn3c(N)c(Br)c(C4CCCNC4)nc23)cn1 (stereo not given)	516	–	557
CC1=CC(=CC=C1)OC/2=C/NC(=O)/N=C2	539	–	566
CN1CCN(CC1)C2=NC3=C(C=CC=C3)C(=N2)C/4=C(/C(=O)NC4=O)C5=C[NH]C6=C5C=CC=C6	498	–	523
CN1CC/C(CC1)=C3\c4ccccc4CCc2sccc23	–	659	–
C[C@H]1C[C@H]2[C@@H]3CC[C@](O)(C(=O)CO)[C@@]3(C)C[C@H](O)[C@@H]2[C@@]\4(C)/C=C\C(=O)\C=C14	520	–	553
Cn1cnc([N+](=O)[O-])c1Sc1ncnc2nc[nH]c12	427	–	472
NC(=O)c1cnc2[nH]ccc2c1NC1C2CC3C[C@H]1CC(O)(C3)C2 (stereo not given in full)	519	–	547
O=C(NOCCO)c1cc(CN2OCCCC2=O)c(F)c(F)c1Nc1ccc(I)cc1F	267	–	267
O=C(CCNC(=O)c1ccc(OC(F)(F)F)cc1)N[C@@H]1CCCc2ccccc21	149	–	81
COC(=O)[C@@H]1CC/2=C/C(=O)CC[C@]2(C)[C@@]34O[C@@H]3C[C@@]5(C)[C@@H](CC[C@@]56CCC(=O)O6)[C@H]14	355	–	528
CC(=O)N[C@H]1CSSC[C@@H](C(N)=O)NC(=O)[C@H](C(C)C)NC(=O)[C@H](C)NC(=O)[C@H](Cc2cnc[nH]2)NC1=O	501	–	551
C[C@@]1(c2ncncc2F)NC(=O)c2cc(-c3cn[nH]c3)ccc21	528	–	546
O=[S+]([O-])(CCSSCC[S+](=O)([O-])[O][Na])[O][Na]	469	–	544
Cc1ccc(Nc2cc(-c3cccc(N4C(=O)c5ccccc5C4=O)c3)ncn2)cc1N[S+](C)(=O)[O-]	462	–	490
COC1=C(OC)C=C2C(=CC=NC2=C1)OC3=CC=C(NC(=O)\C4=C\N(C(C)C)C(=O)N(C4=O)C5=CC=C(F)C=C5)C=C3F	489	–	460
Nc1nc2cc(-c3ccc4ncc(C(=O)N5CCOCC5)n4c3)ccc2o1	514	–	478
COC(=O)N1CC2(CC2)C[C@H](C(=O)NO)[C@H]1C(=O)N1CCN(c2ccccc2)CC1	412	–	470
COc1cccc(OC)c1-c1cc(C(=O)NC2(C(=O)O)C3CC4CC(C3)CC2C4)nn1-c1ccnc2cc(Cl)ccc12 (stereo not given)	513	–	569
O=C(Nc1ccc(F)c(C(F)(F)F)c1)Nc1nnc(-c2ccncc2)s1	444	–	464
